Assay results published in patent US11021481B2, “Substituted isoindolin-1-ones and 2,3-dihydro-1h-pyrrolo[3,4-c]pyridin-1-ones as HPK1 antagonists” (Nimbus Saturn, Inc., priority 2019, dated 2021).

Target: HPK1 (Homo sapiens (Human), UniProt Q92918)
Test: HPK1 biochemical enzyme assay (microfluidic mobility shift assay)
Conditions: 1.5 nM HPK1, ATP 1 mM final, 30 min preincubation, 60 min at RT, Caliper EZ Reader; read-out: HPK1 1000UMATP caliper IC50
Outline: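 Mobility shift readout of HPK1 activity after a 60 min RT reaction with 1 mM ATP, 1 μM substrate and 5 mM MgCl2. Enzyme/substrate mix was first exposed to compounds for 30 min, using ten-point curves topping at 3 μM final.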

HPK1, sequence (Q92918 whole entry): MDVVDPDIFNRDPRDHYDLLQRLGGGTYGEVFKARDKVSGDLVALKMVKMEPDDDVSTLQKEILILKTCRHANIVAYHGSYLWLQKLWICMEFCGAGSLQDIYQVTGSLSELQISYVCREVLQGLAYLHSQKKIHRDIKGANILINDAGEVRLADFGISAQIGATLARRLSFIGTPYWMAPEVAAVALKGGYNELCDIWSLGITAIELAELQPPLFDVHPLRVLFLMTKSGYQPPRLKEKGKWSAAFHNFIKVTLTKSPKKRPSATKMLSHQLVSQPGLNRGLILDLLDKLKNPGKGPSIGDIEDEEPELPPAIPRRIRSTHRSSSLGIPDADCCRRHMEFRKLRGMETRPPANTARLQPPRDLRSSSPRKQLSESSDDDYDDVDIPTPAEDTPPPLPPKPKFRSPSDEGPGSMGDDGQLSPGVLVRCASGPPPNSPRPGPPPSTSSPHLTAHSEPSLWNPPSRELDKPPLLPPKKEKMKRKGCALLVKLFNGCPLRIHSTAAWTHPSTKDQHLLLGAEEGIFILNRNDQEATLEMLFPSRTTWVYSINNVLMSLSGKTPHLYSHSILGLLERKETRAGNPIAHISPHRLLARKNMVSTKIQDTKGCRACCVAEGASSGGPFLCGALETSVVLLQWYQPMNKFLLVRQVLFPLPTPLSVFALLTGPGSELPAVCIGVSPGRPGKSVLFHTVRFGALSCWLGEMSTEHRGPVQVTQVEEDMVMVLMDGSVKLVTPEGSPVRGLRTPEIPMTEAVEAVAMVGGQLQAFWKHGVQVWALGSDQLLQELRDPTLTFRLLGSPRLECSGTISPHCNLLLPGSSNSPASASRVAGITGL

SMILES	IC50
Cn1ccc2c(-c3ccc(Nc4ccc(N5CC[C@H](O)C5)cn4)c4c3CNC4=O)ccnc21 [I-285, (S)-7-((5-(3-hydroxy-pyrrolidin-1-yl)pyridin-2-yl)amino)-4-(1-methyl-1H-pyrrolo[2,3-b]pyridin-4-yl)isoindolin-1-one]	< 100 nM
CNC1CCN(c2ccc(Nc3cnc(-c4ccnc5c4ccn5C)c4c3C(=O)NC4)nc2)CC1(F)F (centres unmarked) [I-453, 7-[[5-[3,3-difluoro-4-(methylamino)-1-piperidyl]-2-pyridyl]amino]-4-(1-methylpyrrolo [2,3-b]pyridin-4-yl)-2,3-dihydropyrrolo [3,4-c]pyridin-1-one]	< 100 nM
CCNC(=O)c1ccn2c(-c3ccc(Nc4ccc(N5CCC(O)CC5)cn4)c4c3CNC4=O)cnc2c1 [I-195, N-ethyl-3-[7-[[5-(4-hydroxy-1-piperidyl)-2-pyridyl]amino]-1-oxo-isoindolin-4-yl]imidazo[1,2-a]pyridine-7-carboxamide]	100 to 1000 nM
CN1CCN(CC2(O)CCN(c3ccc(Nc4ccc(-c5cnc6ccccn56)c5c4C(=O)NC5)nc3)CC2)CC1 [I-403, 7-((5-(4-hydroxy-4-((4-methylpiperazin-1-yl)methyl)pip-eridin-1-yl)pyridin-2-yl)amino)-4-(imidazo[1,2-a]pyridin-3-yl)isoindolin-1-one]	< 100 nM
CN1CCN(c2ccc(Nc3ccc(-c4ccn5ccnc5c4)c4c3C(=O)NC4)nc2)CC1 [I-35, 4-imidazol[1,2-a]pyridin-7-yl-7-[[5-(4-methylpiperazin-1-yl)-2-pyridyl]amino] isoindolin-1-one]	100 to 1000 nM
CN(C)C(C)(C)C1CCCN(c2ccc(Nc3ccc(-c4cnc5cc(F)ccn45)c4c3C(=O)NC4)nc2)C1 (stereo in doubt) [I-607, (S)-7-((5-(3-(2-(dimethylami-no)propan-2-yl)piperidin-1-yl)pyridin-2-yl)amino)-4-(7-fluoroimidazo [1,2-a]pyridin-3-yl)isoindolin-1-one]	< 100 nM
CCN(CC)Cc1nc(Nc2ccc(-c3cnc4cc(F)ccn34)c3c2C(=O)NC3)ccc1[C@H]1CCOC1 [I-510, (R)-7-((6-((diethylamino)-methyl)-5-(tetrahydrofuran-3-yl)pyridin-2-yl)amino)-4-(7-fluoroimidazo [1,2-a]pyridin-3-yl)isoindolin-1-one]	< 100 nM
Cc1cc2c(-c3ncc(Nc4ccc(N5CCN(C)CC5)cn4)c4c3CNC4=O)ccnc2[nH]1 [I-55, 7-[[5-(4-methylpiperazin-1-yl)-2-pyridyl]amino]-4-(2-methyl-1H-pyrrolo[2,3-b]pyridin-4-yl)-2,3-dihydropyrrolo [3,4-c]pyridin-1-one]	< 100 nM
CN1CCN(c2ccc(Nc3cnc(-c4ccnc5c4ccn5C)c4c3C(=O)NC4)nc2)CC1 [I-18, 7-[[5-(4-methylpiperazin-1-yl)-2-pyridyl]amino]-4-(1-methylpyrrolo [2,3-b]pyridin-4-yl)-2,3-dihydropyrrolo [3,4-c]pyridin-1-one]	< 100 nM
CN(C)C(C)(C)C1CN(c2ccc(Nc3ccc(-c4cnc5cc(F)ccn45)c4c3C(=O)NC4)nc2)CCO1 (stereo in doubt) [I-591, (S)-7-((5-(2-(2-(dimethylami-no)propan-2-yl)morpho-lino)pyridin-2-yl)amino)-4-(7-fluoroimidazo [1,2-a]pyridin-3-yl)isoindolin-l-one]	< 100 nM
CCNC(=O)C(C)(C)c1ccc(Nc2ccc(-c3ccnc4c3ccn4C)c3c2C(=O)NC3)nc1 [I-146, N-ethyl-2-methyl-2-[6-[[7-(1-methylpyrrolo [2,3-b]pyridin-4-yl)-3-oxo-isoindolin-4-yl]amino]-3-pyridyl]propan amide]	< 100 nM
CN1CCN(c2ccc(Nc3ccc(-c4ccn5ncnc5c4)c4c3C(=O)NC4)nc2)CC1 [I-36, 7-[[5-(4-methylpiperazin-1-yl)-2-pyridyl]amino]-4-([1,2,4]triazolo [1,5-a]pyridin-7-yl)isoindolin-1-one]	100 to 1000 nM
CN(C)[C@@H]1CCCc2ccc(Nc3ccc(-c4cnc5cc(F)ccn45)c4c3C(=O)NC4)nc21 [I-842, (R)-7-((8-(dimethylam-ino)-5,6,7,8-tetrahydroquin-olin-2-yl)amino)-4-(7-fluoroimidazo [1,2-a]pyridin-3-yl)isoindo1in-1-one]	< 100 nM
CN(C)CCc1nc(Nc2ccc(-c3cnc4cc(F)ccn34)c3c2C(=O)NC3)ccc1N1CCOCC1 [I-840, 7-((6-(2-(dimethylami-no)ethyl)-5-morpholinopyridin-2-yl)amino)-4-(7-fluoroimidazo [1,2-a]pyridin-3-yl)isoindolin-1-one]	< 100 nM
CN1C[C@H]2CCN(c3cccc(Nc4cnc(-c5ccnc6c5ccn6C)c5c4C(=O)NC5)n3)[C@H]2C1 [I-631, 4-(1-methyl-1H-pyrrolo[2,3-b]pyridin-4-yl)-7-((6-((3aR,6aR)-5-methylhexahy-dropyrrolo[3,4-b]pyrrol-1(2H)-yl)pyridin-2-yl)amino)-2,3-dihydro-1H-pyrrolo[3,4-c]pyridin-1-one]	> 1000 nM
O=C1NCc2c(-c3ccnn4cccc34)ncc(Nc3ccc(N4CCC(O)CC4)cn3)c21 [I-588, 7-((5-(4-hydroxypiperidin-1-yl)pyridin-2-yl)amino)-4-(pyrrolo[1,2-b]pyridazin-4-yl)-2,3-dihydro-1H-pyrrolo[3,4-c]pyridin-1-one]	> 1000 nM

SMILES	IC50
Cc1ccc2c(-c3ccc(Nc4ccc(N5CCC(O)CC5)cn4)c4c3CNC4=O)cnn2c1 [I-137, 7-[[5-(4-hydroxy-1-piperidyl)-2-pyridyl]amino]-4-(6-methylpyrazolo[1,5-a]pyridin-3-yl)isoindolin-1-one]	< 100 nM
Cn1nc(Nc2ccc(-c3cnc4cc(F)ccn34)c3c2C(=O)NC3)cc1C1(O)CCOCC1 [I-566, 4-(7-fluoroimidazo [1,2-a]pyridin-3-yl)-7-((5-(4-hydroxytetrah-ydro-2H-pyran-4-yl)-1-methyl-1H-pyrazol-3-yl)amino)isoin-dolin-1-one]	< 100 nM
CC1(O)CCN(c2ccc(Nc3ccc(-c4cnc5cnccn45)c4c3C(=O)NC4)nc2)CC1 [I-313, 7-((5-(4-hydroxy-4-methylpiperidin-1-yl)pyridin-2-yl)amino)-4-(imidazo[1,2-a]pyrazin-3-yl)isoindolin-1-one]	< 100 nM
CN1CCN(c2ccc(Nc3ccc(-c4nnc5ccccn45)c4c3C(=O)NC4)nc2)CC1 [I-85, 7-[[5-(4-methylpiperazin-1-yl)-2-pyridyl]amino]-4-([1,2,4]triazolo [4,3-a]pyridin-3-yl)isoindolin-1-one]	< 100 nM
Cn1cnc2c(-c3ccc(Nc4ccc(N5CCNCC5)cn4)c4c3CNC4=O)cccc21 [I-122, 4-(1-methylbenzimidazol-4-yl)-7-[(5-piperazin-1-yl-2-pyridyl)amino] isoindolin-1-one]	< 100 nM
CCNC(=O)c1ccc(Nc2ccc(-c3cnc4cc(F)ccn34)c3c2C(=O)NC3)nc1CN(C)C [I-791, 2-((dimethylamino)-methyl)-N-ethyl-6-((7-(7-fluoroimidazo [1,2-a]pyridin-3-yl)-3-oxoisoindolin-4-yl)amino)nico-tinamide]	< 100 nM
Cn1ccc2c(-c3ncc(Nc4cccc(C5CCNCC5)n4)c4c3CNC4=O)ccnc21 [I-390, 4-(1-methyl-1H-pyrrolo[2,3-b]pyridin-4-yl)-7-((6-(piperidin-4-yl)pyridin-2-yl)amino)-2,3-dihydro-1H-pyrrolo[3,4-c]pyridin-1-one]	100 to 1000 nM
COc1cccc2c(-c3ncc(Nc4ccc(N5CCN(C)CC5)cn4)c4c3CNC4=O)c[nH]c12 [I-7, 4-(7-methoxy-1H-indol-3-yl-)-7-[[5-(4-methylpiperazin-1-yl)-2-pyridyl]amino]-2,3-dihydropyrrolo [3,4-c]pyridin-1-one]	100 to 1000 nM
CC(C)(O)[C@@H]1COCCN(c2ccc(Nc3ccc(-c4cnc5cc(F)ccn45)c4c3C(=O)NC4)nc2)C1 [I-627, (S)-4-(7-fluoroimidazo [1,2-a]pyridin-3-yl)-7-((5-(6-(2-hydroxypropan-2-yl)-1,4-oxazepan-4-yl)pyridin-2-yl)amino)isoin-dolin-1-one]	< 100 nM
COc1ccc2[nH]cc(-c3ncc(Nc4ccc(N5CCN(C)CC5)cn4)c4c3CNC4=O)c2c1 [I-9, 4-(5-methoxy-1H-indol-3-yl)-7-[[5-(4-methylpiperazin-1-yl)-2-pyridyl]amino]-2,3-dihydropyrrolo [3,4-c]pyridin-1-one]	100 to 1000 nM
Cc1cc2c(-c3ncc(Nc4ccc(N5CCC[C@@H](C(C)(C)O)C5)cn4)c4c3CNC4=O)ccnc2n1C [I-237, 4-[1,2-dimethylpyrrolo [2,3-b]pyridin-4-yl)-7-[[5-[(3R)-3-(1-hydroxy-1-methyl-ethyl)-1-piperidyl]-2-pyridyl]amino]-2,3-dihydropyrrolo [3,4-c]pyridin-1-one]	100 to 1000 nM
O=C1NCc2c(-c3cnc4cc(F)ccn34)ccc(Nc3ccc(N4CCO[C@H](Cn5ccnc5)C4)cn3)c21 [I-512, 4-(7-fluoroimidazo [1,2-a]pyridin-3-yl)-7-[[5-[(2S)-2-(imidazol-1-ylmethyl)mor-pholin-4-yl]-2-pyridyl]amino] isoindolin-1-one]	< 100 nM
O=C1NCc2c(-c3cnc4cnccn34)ccc(Nc3ccc(N4CCC[C@H](O)C4)cn3)c21 [I-169, 7-[[5-[(3S)-3-hydroxy-1-piperipyl]-2-pyridyl]amino]-4-imidazol[1,2-a]pyrazin-3-yl-isoindolin-1-one]	< 100 nM
Cn1cnc2c(-c3ccc(Nc4ccc(N5CCC(O)CC5)cn4)c4c3CNC4=O)cccc21 [I-173, 7-[[5-(4-hydroxy-1-piperidyl)-2-pyridyl]amino]-4-(1-methylbenz-imidazol-4-yl)isoindolin-1-one]	< 100 nM
Cc1cc(-c2ccc(Nc3ccc(N4CCNCC4)cn3)c3c2CNC3=O)c2ccn(C)c2n1 [I-103, 4-(1,6-dimethylpyrrolo [2,3-b]pyridin-4-yl)-7-[(5-piperazin-1-yl-2-pyridyl)amino] isoindolin-1-one]	100 to 1000 nM
O=C1NCc2c(-c3cnc4c(C(F)(F)F)cccn34)ccc(Nc3ccc(N4CCC(O)CC4)cn3)c21 [I-149]	< 100 nM
